Molecules are shown by their SMILES. Structures can show the parent of a compound that is named as a salt. Bounds are passed on as bounds.

In this experiment the test system is MT4. Description: Inhibition of cell culture in MT-4 cells. The class given is functional. The following applies: Homo sapiens, read-out: CIC95.
Consider `[O-][S+](Cc1[nH]c2ccc(Cl)cc2c1Sc1ccccc1)c1ccccc1` (stereo not given), for which the IC95 was determined as 800 nM.
As for `NC(=O)c1[nH]c2ccc(Cl)cc2c1[S+]([O-])c1ccccc1` (stereo not given), the figure is 200 nM.
In the case of `Cc1ccnc2c1NC(=O)c1cccnc1N2C1CC1` [NEVIRAPINE] it was 400 nM; in that of `CN(C)C(=O)c1[nH]c2ccccc2c1Sc1ccccc1`, greater than 3000 nM; in that of `CCNc1cccnc1N1CCN(C(=O)c2cc3cc(OC)ccc3[nH]2)CC1` [ATEVIRDINE MESYLATE], 3000 nM.
As for `NC(=O)c1[nH]c2ccc(Cl)cc2c1Sc1ccccc1`, the figure is 200 nM; as for `[O-][S+](Cc1[nH]c2ccccc2c1[S+]([O-])c1ccccc1)c1ccccc1` (stereo not given), greater than 3000 nM.
`COC(=O)c1[nH]c2ccccc2c1Sc1ccccc1`: the IC95 was greater than 3000 nM.
In the case of `CNC(=O)c1[nH]c2ccccc2c1Sc1ccccc1` it was 800 nM.
As to `[O-][S+](Cc1[nH]c2ccccc2c1Sc1ccccc1)c1ccccc1` (stereo not given), the IC95 was 400 nM.
In the case of `NC(=O)c1[nH]c2ccc(Cl)cc2c1S(=O)(=O)c1ccccc1` [L-737126] it was 3 nM; in that of `CCc1cc(NCc2nc3c(Cl)ccc(Cl)c3o2)c(O)nc1C` [L-697661], 50 nM.
As for `CC(C)=CCN1Cc2cc(Cl)cc3[nH]c(=S)n(c23)C[C@@H]1C`, the figure is 400 nM; as for `CNC(=O)c1[nH]c2ccc(Cl)cc2c1Sc1ccccc1`, 200 nM.
As for `COC(=O)c1[nH]c2ccc(Cl)cc2c1Sc1ccccc1`, the figure is 1500 nM.

(Values after ChEMBL document CHEMBL1126659, “5-chloro-3-(phenylsulfonyl)indole-2-carboxamide: a novel, non-nucleoside inhibitor of HIV-1 reverse transcriptase” (J Med Chem, 1993).)
